The NIST ThermoML archive (doi:10.1016/j.fluid.2006.07.011)
Numbers after ± are expanded uncertainties.

Assays:
[1] = 101.33 kPa, Liquid
[2] = Boiling temperature at pressure P; settings: 101.33 kPa; Liquid; Distillation
[3] = refractive index (Na D-line) (dimensionless); settings: 293.15 K; 101.33 kPa; Liquid; Standard Abbe refractometry

Row | Structure (SMILES) | mass density ([1]; 298.15 K) | Boiling temperature at pressure P [2] | refractive index [3] | mass density ([1]; 293.15 K)
1 | CCC(=O)O [propanoic acid] | 988 ± 0.53 kg/m3 | 141.00 ± 0.5 °C | 1.3811 ± 0.0008 | –
2 | O=CO [formic acid] | – | 109.90 ± 2 °C | 1.3711 ± 0.0008 | 1218.5 ± 2.5 kg/m3
3 | CC(=O)O [acetic acid] | 1044.3 ± 0.26 kg/m3 | 117.70 ± 0.5 °C | 1.3721 ± 0.0007 | –
4 | CC(C)c1ccccc1 [isopropylbenzene] | 863.75 ± 0.85 kg/m3 | 152.39 ± 0.5 °C | 1.4913 ± 0.0008 | –
